Each block holds one compound with its values, some of them ahead of it. Calls of active or inactive are those of the source. No cut-off for these calls is given here.
How the values were obtained:
NIH3T3 [1] = assay: Antitumor activity against mouse NIH/3T3 cells expressing EML4-ALK L1196M mutant xenografted in nude mouse assessed as tumor stasis at 50 mg/kg, po qd administered for 10 days; format: functional, organism-based
NIH3T3 [2] = assay: Antitumor activity against mouse NIH/3T3 cells expressing EML4-ALK L1196M mutant xenografted in nude mouse assessed as partial tumor regression at 50 mg/kg, po qd administered for 10 days; format: functional, organism-based
cells [3] = conditions: Homo sapiens, KARPAS-299, 72 h
Description: Antiproliferative activity against human KARPAS299 cells after 72 hrs by SRB/CCK-8 assay

cells [4] = conditions: Homo sapiens, SU-DHL-1, 72 h
Description: Antiproliferative activity against human SU-DHL1 cells after 72 hrs by SRB/CCK-8 assay

cells [5] = conditions: Homo sapiens, SUP-M2, 72 h
Description: Antiproliferative activity against human SUP-M2 cells after 72 hrs by SRB/CCK-8 assay

cells [6] = conditions: Homo sapiens, NCI-H3122, 72 h
Description: Antiproliferative activity against human NCI-H3122 cells after 72 hrs by SRB/CCK-8 assay

cells [7] = conditions: Mus musculus, NIH3T3, 72 h
Description: Antiproliferative activity against mouse NIH/3T3 cells expressing wild type EML4-ALK after 72 hrs by SRB/CCK-8 assay

cells [8] = conditions: Mus musculus, NIH3T3, 72 h; remark: listed apart in the source
Description: Antiproliferative activity against mouse NIH/3T3 cells expressing EML4-ALK L1196 mutant after 72 hrs by SRB/CCK-8 assay

animal or person [9] = conditions: Mus musculus, NIH3T3, po, 240 h, read-out: TGI
Description: Antitumor activity against mouse NIH/3T3 cells expressing wild type EML4-ALK xenografted in nude mouse assessed as tumor growth inhibition at 50 mg/kg, po qd administered for 10 days

animal or person [10] = conditions: Mus musculus, NIH3T3, po, 240 h, read-out: TGI; remark: listed apart in the source
Description: Antitumor activity against mouse NIH/3T3 cells expressing EML4-ALK L1196M mutant xenografted in nude mouse assessed as tumor growth inhibition at 50 mg/kg, po qd administered for 10 days

[11] = Antitumor activity against mouse NIH/3T3 cells expressing wild type EML4-ALK xenografted in nude mouse assessed as tumor growth inhibition at 40 mg/kg, po qd administered for 10 days; format: functional; conditions: NIH3T3, po, 240 h, read-out: TGI
[12] = Antitumor activity against mouse NIH/3T3 cells expressing wild type EML4-ALK xenografted in nude mouse assessed as tumor growth inhibition at 20 mg/kg, po qd administered for 10 days; format: functional; conditions: NIH3T3, po, 240 h, read-out: TGI
[13] = Antitumor activity against mouse NIH/3T3 cells expressing EML4-ALK L1196M mutant xenografted in nude mouse assessed as tumor growth inhibition at 40 mg/kg, po qd administered for 10 days; format: functional; conditions: NIH3T3, po, 240 h, read-out: TGI
[14] = Antitumor activity against mouse NIH/3T3 cells expressing EML4-ALK L1196M mutant xenografted in nude mouse assessed as tumor growth inhibition at 20 mg/kg, po qd administered for 10 days; format: functional; conditions: NIH3T3, po, 240 h, read-out: TGI
[15] = target: Hepatocyte growth factor receptor (Homo sapiens, UniProt P08581); assay: Inhibition of N-terminal His6-tagged recombinant human c-Met (974 residues) expressed in insect Sf21 cells using poly(Glu,Tyr)4:1 as substrate incubated for 60 mins by ELISA
[16] = target: Leukocyte tyrosine kinase receptor (Homo sapiens, UniProt P29376); assay: Inhibition of recombinant LTK (unknown origin) using poly(Glu,Tyr)4:1 as substrate incubated for 60 mins by ELISA
[17] = target: Proto-oncogene tyrosine-protein kinase ROS (Homo sapiens, UniProt P08922); assay: Inhibition of recombinant ROS1 (unknown origin) using poly(Glu,Tyr)4:1 as substrate incubated for 60 mins by ELISA
Sequence of Proto-oncogene tyrosine-protein kinase ROS (P08922 whole entry): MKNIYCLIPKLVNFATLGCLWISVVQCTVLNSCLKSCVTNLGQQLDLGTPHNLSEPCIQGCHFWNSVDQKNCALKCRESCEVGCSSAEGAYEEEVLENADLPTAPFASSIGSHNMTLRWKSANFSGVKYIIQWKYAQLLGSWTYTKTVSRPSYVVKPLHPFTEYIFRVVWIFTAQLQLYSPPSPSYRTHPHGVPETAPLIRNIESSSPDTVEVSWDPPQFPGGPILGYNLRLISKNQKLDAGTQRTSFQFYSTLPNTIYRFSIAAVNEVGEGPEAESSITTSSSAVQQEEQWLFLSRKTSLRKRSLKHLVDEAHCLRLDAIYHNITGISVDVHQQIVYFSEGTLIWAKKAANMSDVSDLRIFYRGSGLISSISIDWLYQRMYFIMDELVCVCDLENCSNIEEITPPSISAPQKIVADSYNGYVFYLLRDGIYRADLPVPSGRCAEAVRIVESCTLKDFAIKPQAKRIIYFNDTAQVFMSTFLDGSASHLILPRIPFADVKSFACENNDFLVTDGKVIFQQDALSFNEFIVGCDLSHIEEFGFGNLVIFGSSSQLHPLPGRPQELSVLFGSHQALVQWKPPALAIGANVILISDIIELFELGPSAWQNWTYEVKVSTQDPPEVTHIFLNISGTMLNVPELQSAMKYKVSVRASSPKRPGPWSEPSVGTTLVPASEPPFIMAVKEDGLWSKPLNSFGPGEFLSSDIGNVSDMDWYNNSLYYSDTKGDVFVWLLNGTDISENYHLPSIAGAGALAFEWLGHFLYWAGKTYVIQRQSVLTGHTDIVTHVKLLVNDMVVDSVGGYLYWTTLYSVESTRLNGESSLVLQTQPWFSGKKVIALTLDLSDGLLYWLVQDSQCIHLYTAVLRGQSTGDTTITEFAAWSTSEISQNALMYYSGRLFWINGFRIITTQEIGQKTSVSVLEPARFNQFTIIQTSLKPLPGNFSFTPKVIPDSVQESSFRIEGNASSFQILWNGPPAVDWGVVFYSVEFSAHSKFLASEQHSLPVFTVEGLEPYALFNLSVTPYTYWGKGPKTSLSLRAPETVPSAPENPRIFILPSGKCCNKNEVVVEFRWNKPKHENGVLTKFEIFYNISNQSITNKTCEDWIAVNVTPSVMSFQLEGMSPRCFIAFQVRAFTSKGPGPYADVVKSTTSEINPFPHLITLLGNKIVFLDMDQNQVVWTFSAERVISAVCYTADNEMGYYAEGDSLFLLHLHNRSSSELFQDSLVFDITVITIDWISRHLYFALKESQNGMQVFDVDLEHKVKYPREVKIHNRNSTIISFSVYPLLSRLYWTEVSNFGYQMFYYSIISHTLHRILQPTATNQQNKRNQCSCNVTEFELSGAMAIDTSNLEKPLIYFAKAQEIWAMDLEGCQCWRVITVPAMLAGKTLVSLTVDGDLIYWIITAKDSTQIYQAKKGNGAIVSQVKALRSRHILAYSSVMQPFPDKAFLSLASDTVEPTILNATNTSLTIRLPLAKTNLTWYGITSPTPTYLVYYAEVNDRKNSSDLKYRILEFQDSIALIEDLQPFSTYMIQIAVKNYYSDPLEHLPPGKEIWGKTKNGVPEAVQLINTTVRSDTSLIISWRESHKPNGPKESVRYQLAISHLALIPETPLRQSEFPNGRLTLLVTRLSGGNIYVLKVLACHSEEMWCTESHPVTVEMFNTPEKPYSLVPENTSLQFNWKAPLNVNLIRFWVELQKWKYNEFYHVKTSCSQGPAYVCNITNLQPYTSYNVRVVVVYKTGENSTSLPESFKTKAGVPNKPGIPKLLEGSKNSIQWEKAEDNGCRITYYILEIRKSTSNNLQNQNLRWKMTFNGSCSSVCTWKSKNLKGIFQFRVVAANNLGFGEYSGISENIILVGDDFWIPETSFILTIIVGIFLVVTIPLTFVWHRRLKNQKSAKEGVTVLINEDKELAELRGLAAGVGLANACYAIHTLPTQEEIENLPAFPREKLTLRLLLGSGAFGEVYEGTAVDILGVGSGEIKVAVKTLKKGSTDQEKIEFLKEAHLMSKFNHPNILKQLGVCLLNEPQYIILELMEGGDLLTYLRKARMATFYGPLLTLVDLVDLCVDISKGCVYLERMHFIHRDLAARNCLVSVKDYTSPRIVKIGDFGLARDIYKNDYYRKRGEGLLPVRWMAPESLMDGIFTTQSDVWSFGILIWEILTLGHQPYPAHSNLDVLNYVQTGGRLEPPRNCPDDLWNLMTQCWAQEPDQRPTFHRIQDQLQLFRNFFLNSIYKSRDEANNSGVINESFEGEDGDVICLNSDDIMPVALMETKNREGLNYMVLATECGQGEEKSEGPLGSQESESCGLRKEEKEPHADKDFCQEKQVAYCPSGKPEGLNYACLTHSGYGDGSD

[18] = target: Insulin-like growth factor 1 receptor (Homo sapiens, UniProt P08069); assay: Inhibition of N-terminal His6-tagged recombinant human IGF-1R (959 residues) expressed in insect Sf21 cells using poly(Glu,Tyr)4:1 as substrate incubated for 60 mins by ELISA
[19] = target: Tyrosine-protein kinase receptor UFO (Homo sapiens, UniProt P30530); assay: Inhibition of recombinant human AXL using poly(Glu,Tyr)4:1 as substrate incubated for 60 mins by ELISA
[20] = target: Tyrosine-protein kinase receptor TYRO3 (Homo sapiens, UniProt Q06418); assay: Inhibition of N-terminal His6-tagged recombinant human TYRO3 (451 residues) expressed in insect Sf21 cells using poly(Glu,Tyr)4:1 as substrate incubated for 60 mins by ELISA
[21] = target: Macrophage-stimulating protein receptor (Homo sapiens, UniProt Q04912); assay: Inhibition of N-terminal His6-tagged recombinant human Ron (983 residues) expressed in insect Sf21 cells using poly(Glu,Tyr)4:1 as substrate incubated for 60 mins by ELISA
[22] = target: Vascular endothelial growth factor receptor 2 (Homo sapiens, UniProt P35968); assay: Inhibition of N-terminal His6-tagged recombinant human KDR (790 residues) expressed in insect Sf21 cells using poly(Glu,Tyr)4:1 as substrate incubated for 60 mins by ELISA
[23] = target: Platelet-derived growth factor receptor alpha (Homo sapiens, UniProt P16234); assay: Inhibition of N-terminal His6-tagged recombinant human PDGFRalpha (550 residues) expressed in insect Sf21 cells using poly(Glu,Tyr)4:1 as substrate incubated for 60 mins by ELISA
[24] = target: Epidermal growth factor receptor (Homo sapiens, UniProt P00533, L858R/T790M); assay: Inhibition of N-terminal GST-tagged recombinant human EGFR T790M/L858R double mutant (696 residues) expressed in insect Sf21 cells using poly(Glu,Tyr)4:1 as substrate incubated for 60 mins by ELISA
[25] = target: Platelet-derived growth factor receptor beta (Homo sapiens, UniProt P09619); assay: Inhibition of N-terminal His6-tagged recombinant human PDGFRbeta (557 residues) expressed in insect Sf21 cells using poly(Glu,Tyr)4:1 as substrate incubated for 60 mins by ELISA
Sequence of Platelet-derived growth factor receptor beta (P09619 whole entry, the tested form may be a part): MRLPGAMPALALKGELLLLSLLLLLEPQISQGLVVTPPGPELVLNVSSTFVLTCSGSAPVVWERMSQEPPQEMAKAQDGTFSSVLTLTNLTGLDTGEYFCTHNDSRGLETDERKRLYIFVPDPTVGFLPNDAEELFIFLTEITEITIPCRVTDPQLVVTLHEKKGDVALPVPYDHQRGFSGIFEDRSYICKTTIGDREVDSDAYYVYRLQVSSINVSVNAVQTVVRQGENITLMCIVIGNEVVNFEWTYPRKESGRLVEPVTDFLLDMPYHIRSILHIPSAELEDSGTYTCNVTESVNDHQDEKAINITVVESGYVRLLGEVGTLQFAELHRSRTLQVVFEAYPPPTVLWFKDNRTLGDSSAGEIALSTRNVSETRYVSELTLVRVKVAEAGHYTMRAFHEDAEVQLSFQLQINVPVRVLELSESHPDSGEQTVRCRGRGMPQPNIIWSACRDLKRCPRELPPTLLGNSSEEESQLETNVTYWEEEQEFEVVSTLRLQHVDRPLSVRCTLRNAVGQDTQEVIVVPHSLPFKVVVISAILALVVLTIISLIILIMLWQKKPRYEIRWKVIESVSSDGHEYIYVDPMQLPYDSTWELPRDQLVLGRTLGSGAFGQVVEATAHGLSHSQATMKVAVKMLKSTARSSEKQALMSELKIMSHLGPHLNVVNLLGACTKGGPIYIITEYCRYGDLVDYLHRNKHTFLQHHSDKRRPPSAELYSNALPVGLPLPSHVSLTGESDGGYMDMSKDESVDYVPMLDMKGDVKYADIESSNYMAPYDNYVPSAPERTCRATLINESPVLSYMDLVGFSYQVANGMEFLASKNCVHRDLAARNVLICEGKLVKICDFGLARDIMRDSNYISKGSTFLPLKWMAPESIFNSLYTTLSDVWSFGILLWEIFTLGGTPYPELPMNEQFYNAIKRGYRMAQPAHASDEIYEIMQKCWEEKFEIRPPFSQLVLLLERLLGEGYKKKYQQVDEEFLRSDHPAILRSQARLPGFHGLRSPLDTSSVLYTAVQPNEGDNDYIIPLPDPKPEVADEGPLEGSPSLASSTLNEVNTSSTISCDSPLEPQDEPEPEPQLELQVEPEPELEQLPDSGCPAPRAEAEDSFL

[26] = target: Receptor tyrosine-protein kinase erbB-4 (Homo sapiens, UniProt Q15303); assay: Inhibition of N-terminal His6-tagged recombinant human ErbB4 (709 to 991 residues) expressed in insect Sf21 cells using poly(Glu,Tyr)4:1 as substrate incubated for 60 mins by ELISA
[27] = target: Vascular endothelial growth factor receptor 1 (Homo sapiens, UniProt P17948); assay: Inhibition of N-terminal GST-tagged recombinant human FLT1 (783 residues) expressed in insect Sf21 cells using poly(Glu,Tyr)4:1 as substrate incubated for 60 mins by ELISA
[28] = target: Receptor-type tyrosine-protein kinase FLT3 (Homo sapiens, UniProt P36888); assay: Inhibition of N-terminal GST-tagged recombinant human FLT3 (564 residues) expressed in insect Sf21 cells using poly(Glu,Tyr)4:1 as substrate incubated for 60 mins by ELISA
[29] = target: Proto-oncogene tyrosine-protein kinase Src (Homo sapiens, UniProt P12931); assay: Inhibition of recombinant human c-Src expressed in insect Sf9 cells using poly(Glu,Tyr)4:1 as substrate incubated for 60 mins by ELISA
Sequence of Proto-oncogene tyrosine-protein kinase Src (P12931 2-536 limits assumed): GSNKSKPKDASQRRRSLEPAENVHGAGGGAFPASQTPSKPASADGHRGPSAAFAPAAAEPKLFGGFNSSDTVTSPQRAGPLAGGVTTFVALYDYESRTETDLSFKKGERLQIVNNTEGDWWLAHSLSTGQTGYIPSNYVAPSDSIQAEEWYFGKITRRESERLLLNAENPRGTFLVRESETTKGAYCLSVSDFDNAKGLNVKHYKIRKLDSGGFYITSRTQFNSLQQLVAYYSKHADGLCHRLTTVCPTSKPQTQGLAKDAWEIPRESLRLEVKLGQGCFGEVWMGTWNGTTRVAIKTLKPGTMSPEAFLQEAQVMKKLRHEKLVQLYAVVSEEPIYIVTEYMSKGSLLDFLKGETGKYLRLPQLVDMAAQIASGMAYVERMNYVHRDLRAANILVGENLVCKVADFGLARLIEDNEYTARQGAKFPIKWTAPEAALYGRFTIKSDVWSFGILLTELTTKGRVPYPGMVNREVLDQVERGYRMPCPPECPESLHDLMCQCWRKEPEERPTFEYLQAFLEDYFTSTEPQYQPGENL

[30] = target: Tyrosine-protein kinase ABL1 (Mus musculus, UniProt P00520); assay: Inhibition of N-terminal His6-tagged recombinant mouse ABL (27 to 1123 residues) expressed in insect Sf21 cells using poly(Glu,Tyr)4:1 as substrate incubated for 60 mins by ELISA
[31] = target: Fibroblast growth factor receptor 1 (Homo sapiens, UniProt P11362); assay: Inhibition of N-terminal GST-tagged recombinant human FGFR1 (456 to 765 residues) expressed in insect Sf21 cells using poly(Glu,Tyr)4:1 as substrate incubated for 60 mins by ELISA
[32] = target: Receptor tyrosine-protein kinase erbB-2 (Homo sapiens, UniProt P04626); assay: Inhibition of human ErbB2 using poly(Glu,Tyr)4:1 as substrate incubated for 60 mins by ELISA
[33] = target: Mast/stem cell growth factor receptor Kit (Homo sapiens, UniProt P10721); assay: Inhibition of N-terminal GST-tagged recombinant human c-Kit (544 residues) expressed in insect Sf21 cells using poly(Glu,Tyr)4:1 as substrate incubated for 60 mins by ELISA
[34] = target: T1, Proto-oncogene tyrosine-protein kinase receptor Ret (Homo sapiens, UniProt P07949); assay: Inhibition of RET (unknown origin) phosphorylation at […] residue in mouse BaF3/CCDC6-RET cells after 1 hr by Western blot analysis; format: cell-based
T1 sequence (P07949 whole entry): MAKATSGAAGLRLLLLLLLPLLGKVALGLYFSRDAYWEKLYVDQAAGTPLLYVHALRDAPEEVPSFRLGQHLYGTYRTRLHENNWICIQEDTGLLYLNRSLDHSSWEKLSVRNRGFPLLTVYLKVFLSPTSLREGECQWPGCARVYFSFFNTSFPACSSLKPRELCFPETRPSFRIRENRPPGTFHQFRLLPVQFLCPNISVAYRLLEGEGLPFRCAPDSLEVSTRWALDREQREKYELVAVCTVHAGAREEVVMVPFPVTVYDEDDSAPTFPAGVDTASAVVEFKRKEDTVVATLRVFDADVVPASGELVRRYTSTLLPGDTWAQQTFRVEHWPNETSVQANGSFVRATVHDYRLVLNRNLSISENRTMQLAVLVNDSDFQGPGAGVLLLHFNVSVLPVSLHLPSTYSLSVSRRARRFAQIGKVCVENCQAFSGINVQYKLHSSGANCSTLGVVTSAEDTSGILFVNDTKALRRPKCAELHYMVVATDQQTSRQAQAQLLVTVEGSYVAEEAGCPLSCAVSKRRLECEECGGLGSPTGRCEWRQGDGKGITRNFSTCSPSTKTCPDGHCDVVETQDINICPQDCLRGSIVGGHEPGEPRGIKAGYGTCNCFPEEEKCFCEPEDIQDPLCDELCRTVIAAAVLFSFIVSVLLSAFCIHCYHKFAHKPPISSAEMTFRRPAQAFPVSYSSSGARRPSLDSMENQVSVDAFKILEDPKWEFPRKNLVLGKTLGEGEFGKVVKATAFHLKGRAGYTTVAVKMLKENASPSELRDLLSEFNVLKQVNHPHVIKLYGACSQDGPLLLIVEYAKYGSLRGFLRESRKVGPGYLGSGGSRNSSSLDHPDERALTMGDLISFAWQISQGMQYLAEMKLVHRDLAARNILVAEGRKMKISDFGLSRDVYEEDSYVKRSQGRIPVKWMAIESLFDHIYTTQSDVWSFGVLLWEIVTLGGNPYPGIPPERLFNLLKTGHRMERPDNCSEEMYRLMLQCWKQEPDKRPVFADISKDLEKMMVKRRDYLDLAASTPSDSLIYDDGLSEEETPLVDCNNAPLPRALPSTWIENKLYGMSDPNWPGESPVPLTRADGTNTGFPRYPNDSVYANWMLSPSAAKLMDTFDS

[35] = target: T1, Proto-oncogene tyrosine-protein kinase receptor Ret; assay: Inhibition of RET (unknown origin) in mouse BaF3/CCDC6-RET cells assessed as suppression of ERK1/2 phosphorylation at T202/Y204 residue after 1 hr by Western blot analysis; format: cell-based
[36] = target: T1, Proto-oncogene tyrosine-protein kinase receptor Ret; assay: Inhibition of RET (unknown origin) in mouse BaF3/CCDC6-RET cells assessed as suppression of AKT phosphorylation at S473 residue after 1 hr by Western blot analysis; format: cell-based
[37] = target: T1, Proto-oncogene tyrosine-protein kinase receptor Ret; assay: Inhibition of RET (unknown origin) in mouse BaF3/CCDC6-RET cells assessed as suppression of STAT3 phosphorylation at Y705 residue after 1 hr by Western blot analysis; format: cell-based
NIH3T3 [38] = assay: Antitumor activity against mouse NIH/3T3 cells expressing wild type EML4-ALK xenografted in nude mouse assessed as tumor stasis at 20 to 40 mg/kg, po qd administered for 10 days; format: functional, organism-based
NIH3T3 [39] = assay: Antitumor activity against mouse NIH/3T3 cells expressing wild type EML4-ALK xenografted in nude mouse assessed as partial tumor regression at 20 to 40 mg/kg, po qd administered for 10 days; format: functional, organism-based
NIH3T3 [40] = assay: Antitumor activity against mouse NIH/3T3 cells expressing EML4-ALK L1196M mutant xenografted in nude mouse assessed as tumor stasis at 40 mg/kg, po qd administered for 10 days; format: functional, organism-based
NIH3T3 [41] = assay: Antitumor activity against mouse NIH/3T3 cells expressing EML4-ALK L1196M mutant xenografted in nude mouse assessed as partial tumor regression at 40 mg/kg, po qd administered for 10 days; format: functional, organism-based
Mus musculus = assay: Toxicity in nude mouse assessed as weight loss at 20 to 40 mg/kg, po qd administered for 10 days; format: organism-based; conditions: in vivo, 240 h
[42] = target: T1, Proto-oncogene tyrosine-protein kinase receptor Ret; assay: biochemical

IC50 (cells [3]): 15 nM
IC50 (cells [4]): 20.5 nM
IC50 (cells [5]): 17.9 nM
IC50 (cells [6]): 17.4 nM
IC50 (cells [7]): 32.3 nM
IC50 (cells [8]): 132 nM
Structure (SMILES): CCc1cc2c(cc1N1CCC(N3CCOCC3)CC1)C(C)(C)c1[nH]c3cc(C#N)ccc3c1C2=O [ALECTINIB]
Activity (NIH3T3 [1]): Active
Activity (NIH3T3 [2]): Active
inhibition in vivo at 50 mg/kg (animal or person [9]): 103%
inhibition in vivo at 50 mg/kg (animal or person [10]): 83.5%

IC50 [15]: > 1000 nM
IC50 [16]: 43.1 nM
IC50 [17]: > 1000 nM
IC50 [18]: 27.8 nM
IC50 [19]: 170 nM
IC50 [20]: 71.9 nM
IC50 [21]: 93.4 nM
IC50 [22]: 104 nM
IC50 [23]: 402 nM
IC50 [24]: 350 nM
IC50 [25]: 64.2 nM
IC50 [26]: 213 nM
IC50 [27]: 159 nM
IC50 [28]: 85.7 nM
IC50 [29]: 75.4 nM
IC50 [30]: > 1000 nM
IC50 [31]: > 1000 nM
IC50 [32]: > 1000 nM
IC50 [33]: > 1000 nM
inhibition [34]: Dose-dependent effect
inhibition [35]: Dose-dependent effect
inhibition [36]: Dose-dependent effect
inhibition [37]: Dose-dependent effect
IC50 (cells [3]): 44.8 nM
IC50 (cells [4]): 48.3 nM
IC50 (cells [5]): 22.9 nM
IC50 (cells [6]): 43.3 nM
IC50 (cells [7]): 46.7 nM
IC50 (cells [8]): 196 nM
IC50 [42]: 1.6 nM
Structure (SMILES): CC1(C)c2cc(C3CCN(CC4CCOCC4)CC3)ccc2C(=O)c2c1[nH]c1cc(C#N)ccc21
inhibition in vivo at 40 mg/kg [11]: 102%
inhibition in vivo at 20 mg/kg [12]: 102%
inhibition in vivo at 40 mg/kg [13]: 87.3%
inhibition in vivo at 20 mg/kg [14]: 56.9%
Activity (NIH3T3 [38]): Active
Activity (NIH3T3 [39]): Active
Activity (NIH3T3 [40]): Active
Activity (NIH3T3 [41]): Active
Activity (Mus musculus): Non-toxic

Source: ChEMBL document CHEMBL3826932, “An orally available tyrosine kinase ALK and RET dual inhibitor bearing the tetracyclic benzo[b]carbazolone core” (Eur J Med Chem, 2016)
